Results published in PubChem BioAssay (NCI).
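Growth conditions: 96-well plates. Treatment: test compound, 48 hours, 5 concentrations. Analysis: linear interpolation between bracketing concentrations; unreached endpoints set to highest concentration. Here, GI50 denotes the concentration required for 50% inhibition of growth. TGI: concentration producing complete growth inhibition.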

What was measured:
Assay in all cases: growth of human tumour cells (NCI), 48 h
TK-10 renal = test system: TK-10 renal
HL-60(TB) leukemia = test system: HL-60(TB) leukemia
NCI-H522 lung = test system: NCI-H522 lung
UACC-257 melanoma = test system: UACC-257 melanoma
U251 CNS = test system: U251 CNS
NCI-H460 lung = test system: NCI-H460 lung
M14 melanoma = test system: M14 melanoma
CAKI-1 renal = test system: CAKI-1 renal
SF-539 CNS = test system: SF-539 CNS
NCI/ADR-RES ovarian = test system: NCI/ADR-RES ovarian

## CCN(CC)CC1CCCCCCCCCCC1=O (centres undefined)
TK-10 renal
  TGI: > 100 µM
HL-60(TB) leukemia
  TGI: > 100 µM
NCI-H522 lung
  TGI: > 100 µM
UACC-257 melanoma
  TGI: > 100 µM
U251 CNS
  TGI: > 100 µM
NCI-H460 lung
  TGI: > 100 µM
M14 melanoma
  TGI: > 100 µM

## [N-]=[N+]=NC12CC3C4CC5CC3C(C1)C(C5)C4C2
CAKI-1 renal
  TGI: > 100 µM
TK-10 renal
  TGI: > 100 µM
SF-539 CNS
  TGI: > 100 µM
NCI-H522 lung
  TGI: > 100 µM
UACC-257 melanoma
  TGI: > 100 µM
U251 CNS
  TGI: > 100 µM
NCI-H460 lung
  TGI: > 100 µM
M14 melanoma
  TGI: > 100 µM

## CN(C)c1ccc(C(C=C2c3ccccc3Sc3ccccc32)=C(C#N)C#N)cc1
CAKI-1 renal
  TGI: > 100 µM
TK-10 renal
  TGI: > 100 µM
HL-60(TB) leukemia
  TGI: > 100 µM
SF-539 CNS
  TGI: > 100 µM
UACC-257 melanoma
  TGI: > 100 µM
U251 CNS
  TGI: > 100 µM
NCI-H460 lung
  TGI: > 100 µM
M14 melanoma
  TGI: > 100 µM

## COC(=O)c1cc2c(s1)C(=O)c1ccccc1-2
CAKI-1 renal
  TGI: > 100 µM
TK-10 renal
  TGI: > 100 µM
HL-60(TB) leukemia
  TGI: > 100 µM
SF-539 CNS
  TGI: > 100 µM
NCI-H522 lung
  TGI: > 100 µM
UACC-257 melanoma
  TGI: > 100 µM
U251 CNS
  TGI: > 100 µM
NCI-H460 lung
  TGI: > 100 µM
M14 melanoma
  TGI: > 100 µM

## O=c1[nH]c2c(nc1NC13CC4CC(CC(C4)C1)C3)c(=O)oc1ccccc12
CAKI-1 renal
  TGI: 46 µM
TK-10 renal
  TGI: > 100 µM
HL-60(TB) leukemia
  TGI: > 100 µM
SF-539 CNS
  TGI: 35.8 µM
NCI-H522 lung
  TGI: > 100 µM
UACC-257 melanoma
  TGI: > 100 µM
U251 CNS
  TGI: 33.1 µM
NCI-H460 lung
  TGI: > 100 µM
M14 melanoma
  TGI: > 100 µM

## C=C1C(=O)OC2CCN3CC=C(COC(=O)C(C)(O)C4(CO4)C1C)C23 (centres undefined)
CAKI-1 renal
  TGI: > 100 µM
TK-10 renal
  TGI: > 100 µM
NCI-H522 lung
  TGI: > 100 µM
UACC-257 melanoma
  TGI: > 100 µM
U251 CNS
  TGI: > 100 µM
NCI-H460 lung
  TGI: > 100 µM
NCI/ADR-RES ovarian
  TGI: > 100 µM
M14 melanoma
  TGI: > 100 µM

## S=C1NC2(CCCCCC2)NN1c1ccccc1
CAKI-1 renal
  TGI: > 100 µM
TK-10 renal
  TGI: > 100 µM
HL-60(TB) leukemia
  TGI: 3.64 µM
NCI-H522 lung
  TGI: > 100 µM
UACC-257 melanoma
  TGI: > 100 µM
U251 CNS
  TGI: > 100 µM
NCI-H460 lung
  TGI: > 100 µM
NCI/ADR-RES ovarian
  TGI: > 100 µM
M14 melanoma
  TGI: > 100 µM

## CC(C)(C)CC(C)(C)c1cc2c(O)c(c1)Cc1cc(C(C)(C)CC(C)(C)C)cc(c1O)Cc1cc(C(C)(C)CC(C)(C)C)cc(c1O)Cc1cc(C(C)(C)CC(C)(C)C)cc(c1O)C2
TK-10 renal
  TGI: > 100 µM
HL-60(TB) leukemia
  TGI: > 100 µM
SF-539 CNS
  TGI: > 100 µM
NCI-H522 lung
  TGI: > 100 µM
UACC-257 melanoma
  TGI: > 100 µM
U251 CNS
  TGI: > 100 µM
NCI-H460 lung
  TGI: > 100 µM
M14 melanoma
  TGI: > 100 µM

## CCCCC(C(=O)C(=O)NC1C2CC3CC(C2)CC1C3)C(=O)C(C)C (centres undefined)
CAKI-1 renal
  TGI: > 100 µM
TK-10 renal
  TGI: > 100 µM
HL-60(TB) leukemia
  TGI: > 100 µM
SF-539 CNS
  TGI: > 100 µM
NCI-H522 lung
  TGI: > 100 µM
UACC-257 melanoma
  TGI: > 100 µM
U251 CNS
  TGI: > 100 µM
NCI-H460 lung
  TGI: > 100 µM
M14 melanoma
  TGI: > 100 µM

## S=C(Nc1ccccc1)N(/N=C/C=C/c1ccccc1)c1nnc(-c2ccccc2)c(-c2ccccc2)n1
CAKI-1 renal
  TGI: > 100 µM
TK-10 renal
  TGI: > 100 µM
HL-60(TB) leukemia
  TGI: 52.4 µM
SF-539 CNS
  TGI: > 100 µM
NCI-H522 lung
  TGI: > 100 µM
UACC-257 melanoma
  TGI: > 100 µM
U251 CNS
  TGI: > 100 µM
NCI-H460 lung
  TGI: > 100 µM
M14 melanoma
  TGI: > 100 µM

## COc1ccc(C2C(Cl)C(=O)N2n2cnc3ccccc3c2=O)cc1 (centres undefined)
CAKI-1 renal
  TGI: > 100 µM
TK-10 renal
  TGI: > 100 µM
HL-60(TB) leukemia
  TGI: > 100 µM
NCI-H522 lung
  TGI: > 100 µM
UACC-257 melanoma
  TGI: > 100 µM
U251 CNS
  TGI: > 100 µM
NCI-H460 lung
  TGI: > 100 µM
M14 melanoma
  TGI: 91.6 µM

## COc1cc(C#CC(=O)OC/C=C/c2ccc3c(c2)OCO3)cc(OC)c1OC
CAKI-1 renal
  TGI: 57 µM
TK-10 renal
  TGI: 60.8 µM
HL-60(TB) leukemia
  TGI: 62.9 µM
SF-539 CNS
  TGI: 44.5 µM
UACC-257 melanoma
  TGI: 70.9 µM
U251 CNS
  TGI: > 100 µM
NCI-H460 lung
  TGI: 77.1 µM
NCI/ADR-RES ovarian
  TGI: 47.8 µM
M14 melanoma
  TGI: 79.8 µM

## O=C(OC(CNc1cc(=O)n(Cc2ccccc2)c(=O)n1Cc1ccccc1)CN1CCCC1)c1ccccc1 (centres undefined)
CAKI-1 renal
  GI50: > 100 µM
  TGI: > 100 µM
TK-10 renal
  GI50: > 100 µM
  TGI: > 100 µM
SF-539 CNS
  GI50: > 100 µM
  TGI: > 100 µM
NCI-H522 lung
  GI50: > 100 µM
  TGI: > 100 µM
UACC-257 melanoma
  GI50: > 100 µM
  TGI: > 100 µM
U251 CNS
  GI50: > 100 µM
  TGI: > 100 µM
NCI-H460 lung
  GI50: > 100 µM
  TGI: > 100 µM
NCI/ADR-RES ovarian
  GI50: > 100 µM
  TGI: > 100 µM
M14 melanoma
  GI50: > 100 µM
  TGI: > 100 µM

## Cc1ccc(NC(=O)C(=O)C(C(=O)c2ccc3ccccc3c2)C2OC(=O)c3ccccc32)cc1C (centres undefined)
CAKI-1 renal
  TGI: 43.7 µM
TK-10 renal
  TGI: 94.6 µM
HL-60(TB) leukemia
  TGI: 44.9 µM
SF-539 CNS
  TGI: 11.4 µM
UACC-257 melanoma
  TGI: 42.4 µM
U251 CNS
  TGI: 33.2 µM
NCI-H460 lung
  TGI: 51.4 µM
M14 melanoma
  TGI: 32.2 µM

## Cn1c2c(c3ccccc31)C1CCCCCCC1C1C(=O)OC(=O)C21 (centres undefined)
TK-10 renal
  TGI: > 100 µM
HL-60(TB) leukemia
  TGI: 63.1 µM
SF-539 CNS
  TGI: > 100 µM
U251 CNS
  TGI: > 100 µM
NCI-H460 lung
  TGI: > 100 µM
M14 melanoma
  TGI: > 100 µM

## CC1(C)COC(c2cccnc2/C=N/O)=N1
CAKI-1 renal
  TGI: > 100 µM
TK-10 renal
  TGI: > 100 µM
HL-60(TB) leukemia
  TGI: > 100 µM
SF-539 CNS
  TGI: > 100 µM
NCI-H522 lung
  TGI: > 100 µM
UACC-257 melanoma
  TGI: > 100 µM
U251 CNS
  TGI: > 100 µM
NCI-H460 lung
  TGI: > 100 µM
M14 melanoma
  TGI: > 100 µM

## CO/N=C/c1cc(OC)c(OC)c(OC)c1
CAKI-1 renal
  TGI: > 100 µM
TK-10 renal
  TGI: > 100 µM
HL-60(TB) leukemia
  TGI: > 100 µM
SF-539 CNS
  TGI: > 100 µM
NCI-H522 lung
  TGI: > 100 µM
UACC-257 melanoma
  TGI: > 100 µM
U251 CNS
  TGI: > 100 µM
NCI-H460 lung
  TGI: > 100 µM
M14 melanoma
  TGI: > 100 µM

## COc1ccc2c3c([nH]c2c1[N+](=O)[O-])C(C)=NCC3
CAKI-1 renal
  TGI: > 100 µM
TK-10 renal
  TGI: > 100 µM
HL-60(TB) leukemia
  TGI: > 100 µM
SF-539 CNS
  TGI: > 100 µM
NCI-H522 lung
  TGI: > 100 µM
UACC-257 melanoma
  TGI: > 100 µM
U251 CNS
  TGI: > 100 µM
NCI-H460 lung
  TGI: > 100 µM
M14 melanoma
  TGI: > 100 µM

## O=C(/C=C/c1ccccc1O)c1ccccc1O
CAKI-1 renal
  TGI: > 100 µM
TK-10 renal
  TGI: > 100 µM
HL-60(TB) leukemia
  TGI: > 100 µM
SF-539 CNS
  TGI: > 100 µM
NCI-H522 lung
  TGI: > 100 µM
UACC-257 melanoma
  TGI: > 100 µM
U251 CNS
  TGI: > 100 µM
NCI-H460 lung
  TGI: > 100 µM

## N#Cc1nc(Nc2cccc3ccccc23)sc1N
CAKI-1 renal
  TGI: > 100 µM
TK-10 renal
  TGI: 76.9 µM
HL-60(TB) leukemia
  TGI: > 100 µM
SF-539 CNS
  TGI: 76.6 µM
NCI-H522 lung
  TGI: 46.4 µM
UACC-257 melanoma
  TGI: 41.1 µM
U251 CNS
  TGI: 52.9 µM
NCI-H460 lung
  TGI: > 100 µM
M14 melanoma
  TGI: > 100 µM

## CC(C)c1ccc2c(c1)CC[C@@H]1[C@@](C)(C(=O)O)CCC[C@]21C
CAKI-1 renal
  GI50: 2.93 µM
  TGI: 12 µM
HL-60(TB) leukemia
  GI50: 3.4 µM
  TGI: 20.9 µM
UACC-257 melanoma
  GI50: 0.33 µM
  TGI: 3.86 µM
U251 CNS
  GI50: 4.54 µM
  TGI: 18.3 µM
NCI-H460 lung
  GI50: 5.07 µM
  TGI: 18.4 µM
NCI/ADR-RES ovarian
  GI50: 17.8 µM
  TGI: 57 µM
M14 melanoma
  GI50: 10.4 µM
  TGI: 22.1 µM

## CN(C)N=Nc1ccc(NC=O)cc1
CAKI-1 renal
  TGI: > 100 µM
TK-10 renal
  TGI: > 100 µM
HL-60(TB) leukemia
  TGI: > 100 µM
SF-539 CNS
  TGI: > 100 µM
UACC-257 melanoma
  TGI: > 100 µM
U251 CNS
  TGI: > 100 µM
NCI-H460 lung
  TGI: > 100 µM
NCI/ADR-RES ovarian
  TGI: > 100 µM
M14 melanoma
  TGI: > 100 µM

## CC(C)N(C(=O)C12C3C4C5(C#N)C3C1(C#N)C5C42I)C(C)C (centres undefined)
CAKI-1 renal
  TGI: > 100 µM
TK-10 renal
  TGI: > 100 µM
HL-60(TB) leukemia
  TGI: > 55.6 µM
SF-539 CNS
  TGI: > 100 µM
NCI-H522 lung
  TGI: > 100 µM
UACC-257 melanoma
  TGI: > 100 µM
U251 CNS
  TGI: > 100 µM
NCI-H460 lung
  TGI: > 100 µM
M14 melanoma
  TGI: > 100 µM
